The text below walks through data of patent publication US11332477B2, “Nitrogen containing heterocycle substituted benzoxazine oxazolidinone compound and preparation method and use thereof” (INSTITUTE OF MATERIA MEDICA, CHINESE ACADEMY OF MEDICAL …, priority 2017, dated 2022).

In brackets after ≈: the same amount, converted by molar mass.

In experiment [1] the test system is clinically isolated 12525 strains (rifampicin- and isoniazid-resistant strains). Put plainly: microbe, parasite or virus in culture. Type of experiment: cell-based. The note with it: Mycobacterium tuberculosis, read-out: MIC 12525.
In experiment [2] the test system is Linezolid-resistant strain. Briefly: microbe, parasite or virus in culture. Type of experiment: cell-based. The settings on record: Mycobacterium tuberculosis, read-out: MIC Linezolid-resistant strain.

Turning to `CC(=O)NC[C@@H]1OC(=O)N2c3cc(F)c(N4CCSCC4)cc3OC[C@@H]12` [Compound 4, N-(((3S,3aS)-8-Fluoro-1-oxo-7-thiomorpholino-3a,4-dihydro-1H,3H-benzo[b]oxazolo[3,4-d][1,4]oxazin-3-yl)methyl)acetamide], the MIC in experiment [1] is under 0.016 µg/mL; in experiment [2] it was 0.246 µg/mL (≈ 0.645 µM). As to `CC(=O)NC[C@@H]1OC(=O)N2c3cc(F)c(N4CC[S+]([O-])CC4)cc3OC[C@@H]12` [Compound 23, N-(((3S,3aS)-8-Fluoro-1-oxo-7-(1-oxidothiomorpholino)-3a,4-dihydro-1H,3H-benzo[b]oxazolo[3,4-d][1,4]oxazin-3-yl)methyl)acetamide], in experiment [1], the MIC was determined as 0.053 µg/mL (≈ 0.133 µM). Turning to `CC(=O)NC[C@H]1OC(=O)N2c3cc(F)c(N4CCSCC4)cc3OC[C@H]12` [Compound 28, N-(((3R,3aR)-8-Fluoro-1-oxo-7-thiomorpholino-3a,4-dihydro-1H,3H-benzo[b]oxazolo[3,4-d][1,4]oxazin-3-yl)methyl)acetamide], the figures for the MIC in experiment [1] and in experiment [2] were 0.047 µg/mL (≈ 0.123 µM) and 3.02 µg/mL (≈ 7.91 µM), respectively.

On to `CC(=O)NC[C@@H]1OC(=O)N2c3ccc(N4CCOCC4)cc3OC[C@@H]12` [Compound VII, reference compound], for which the MIC in experiment [1] was 0.119 µg/mL (≈ 0.343 µM); in experiment [2], 21.6 µg/mL (≈ 62.2 µM).

`CC(=O)NC[C@H]1CN(c2ccc(N3CCOCC3)c(F)c2)C(=O)O1` [Linezolid, reference compound]: the results for the MIC in experiment [1] and in experiment [2] were 0.138 µg/mL (≈ 0.409 µM) and 4 µg/mL (≈ 11.9 µM), respectively.

In the case of `NNC(=O)c1ccncc1` [isoniazid], the MIC in experiment [1] was over 40 µg/mL; in experiment [2] it was 0.032 µg/mL (≈ 0.233 µM). Turning to `CO[C@H]1/C=C/O[C@@]2(C)Oc3c(C)c(O)c4c(O)c(c(/C=N/N5CCN(C)CC5)c(O)c4c3C2=O)NC(=O)/C(C)=C\C=C\[C@H](C)[C@H](O)[C@@H](C)[C@@H](O)[C@@H](C)[C@H](OC(C)=O)[C@@H]1C` [rifampicin], the MIC worked out at 22.4 µg/mL (≈ 27.2 µM) in experiment [1] and 0.073 µg/mL (≈ 0.0887 µM) in experiment [2].
